Experimental data: BigSolDB 2.1

CC[C@@]1(O)C(=O)OCc2c1cc1n(c2=O)Cc2cc3ccccc3nc2-1
solubility (mole fraction) (in chloroform, 275.76 K): 0.000222
solubility (mole fraction) (in chloroform, 279.07 K): 0.000246
solubility (mole fraction) (in chloroform, 282.38 K): 0.000272
solubility (mole fraction) (in chloroform, 285.02 K): 0.000288
solubility (mole fraction) (in chloroform, 287.55 K): 0.000308
solubility (mole fraction) (in chloroform, 291.19 K): 0.000332
solubility (mole fraction) (in chloroform, 294.18 K): 0.000354
solubility (mole fraction) (in chloroform, 297.25 K): 0.000375
solubility (mole fraction) (in chloroform, 300.57 K): 0.000404
solubility (mole fraction) (in chloroform, 303.1 K): 0.000421
solubility (mole fraction) (in chloroform, 305.96 K): 0.000441
solubility (mole fraction) (in chloroform, 308.51 K): 0.000465
solubility (mole fraction) (in chloroform, 311.59 K): 0.000489
solubility (mole fraction) (in chloroform, 315.12 K): 0.000513
solubility (mole fraction) (in chloroform, 318.31 K): 0.000544
solubility (mole fraction) (in chloroform, 322.39 K): 0.000575
solubility (mole fraction) (in chloroform, 326.25 K): 0.000613
solubility (mole fraction) (in ethanol, 277.98 K): 9.03e-06
solubility (mole fraction) (in ethanol, 281.62 K): 1.08e-05
solubility (mole fraction) (in ethanol, 284.67 K): 1.25e-05
solubility (mole fraction) (in ethanol, 287.95 K): 1.39e-05
solubility (mole fraction) (in ethanol, 291 K): 1.6e-05
solubility (mole fraction) (in ethanol, 294.63 K): 1.78e-05
solubility (mole fraction) (in ethanol, 297.81 K): 2.01e-05
solubility (mole fraction) (in ethanol, 301.09 K): 2.24e-05
solubility (mole fraction) (in ethanol, 304.26 K): 2.46e-05
solubility (mole fraction) (in ethanol, 307.54 K): 2.76e-05
solubility (mole fraction) (in ethanol, 310.47 K): 3.06e-05
solubility (mole fraction) (in ethanol, 313.63 K): 3.33e-05
solubility (mole fraction) (in ethanol, 316.57 K): 3.68e-05
solubility (mole fraction) (in ethanol, 319.26 K): 4.01e-05
solubility (mole fraction) (in ethanol, 321.7 K): 4.31e-05
solubility (mole fraction) (in ethanol, 324.43 K): 4.64e-05
solubility (mole fraction) (in ethanol, 326.3 K): 4.91e-05
solubility (mole fraction) (in methanol, 277.52 K): 1.27e-05
solubility (mole fraction) (in methanol, 280.45 K): 1.43e-05
solubility (mole fraction) (in methanol, 283.37 K): 1.57e-05
solubility (mole fraction) (in methanol, 286.2 K): 1.72e-05
solubility (mole fraction) (in methanol, 289.49 K): 1.95e-05
solubility (mole fraction) (in methanol, 293.24 K): 2.2e-05
solubility (mole fraction) (in methanol, 296.6 K): 2.49e-05
solubility (mole fraction) (in methanol, 299.68 K): 2.74e-05
solubility (mole fraction) (in methanol, 302.78 K): 3.03e-05
solubility (mole fraction) (in methanol, 305.61 K): 3.35e-05
solubility (mole fraction) (in methanol, 308.45 K): 3.66e-05
solubility (mole fraction) (in methanol, 311.02 K): 4e-05
solubility (mole fraction) (in methanol, 313.77 K): 4.37e-05
solubility (mole fraction) (in methanol, 316.53 K): 4.78e-05
solubility (mole fraction) (in methanol, 319.02 K): 5.2e-05
solubility (mole fraction) (in methanol, 321.42 K): 5.59e-05
solubility (mole fraction) (in methanol, 323.48 K): 5.95e-05
